The source of these data is ChEMBL document CHEMBL1201862, “PubChem BioAssay data set” (2004).

Calls of active or inactive are those of the source.

Test [1] is described as follows: Mtb BioA inhibitors by displacement, dose response, biochemical, coupled fluorescence displacement, 20-point, dry powder (AID 743357). The test is classed as functional.
A further test concerns P388. Kind of test: cells. In kind it is functional. Conditions: Mus musculus.
The nature of test [2]: cytotoxicity toward Colo320 cells – cell-based, CellTiter-Glo luminescence, IC50, dose response (AID 1117334). In kind it is functional. The note with it: COLO 320.
A short description of test [3]: Concentration-dependent survival of SW480 colon cancer line, luminescence detection with CellTiter-Glo, half-maximal inhibitory concentration (AID 1117338). In kind it is functional.
Test [4] is described as follows: HCT116 cell viability decrease, GSK3B pretreatment – CellTiter-Glo, IC50, dose response (AID 1117339). In kind it is functional. The note with it: HCT-116.
The nature of test [5]: microbe, parasite or virus in culture. The test is classed as functional. Conditions: Mycobacterium tuberculosis.
Test [6] in a line: HeLa 2N DNA content increase, dose response, cell-based, IC50 (AID 1117349). The test is classed as functional.
In test [7] the test system is BJ. Kind of test: cytotoxicity toward Ras-transformed BJeLR fibroblasts, dose response, cell-based, alamar blue fluorescence, cherrypicked samples (AID 2631).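 Further: confirmatory dose-response assay in RAS-dependent BJ fibroblasts engineered with TERT, LT and ST, with cytotoxicity read by fluorescence.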 The test is classed as functional. The note with it: Homo sapiens.
The nature of test [8]: HeLa 4N DNA content increase, dose response, cell-based, IC50 (AID 1117351). In kind it is functional.
A short description of test [9]: inhibitors of SNCA 5'UTR-driven reporter translation, confirmation, H4 neuroglioma cells, luminescence (AID 1988). In kind it is functional, cell-based.
In test [10] the test system is BJ. Kind of test: cells. The test is classed as functional, cell-based. Conditions: Homo sapiens.
For another test, the system named is P388/ADR. Description: cells. The note with it: Mus musculus. The test is classed as functional.
The nature of test [11]: CellTiter-Glo luminescent dose response of DLD-1 viability loss (AID 1117352). In kind it is functional.
A short description of test [12]: SNU-C1 cell viability reduction, dose response, CellTiter-Glo luminescence (AID 1117323). In kind it is functional, cell-based.
A further test relates to SN12K1. Description: cells. In kind it is functional. The note with it: Homo sapiens.
Test [13] has as its system BJ. Kind of test: cytotoxicity toward BJ-TERT-LT-ST fibroblasts, dose response, cell-based, RAS-independent, luminescence (AID 1935).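 Further: BJ fibroblasts immortalized with TERT plus LT and ST oncogenes.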 The test is classed as functional. The note with it: Homo sapiens.
In test [14] the test system is BJ. Description: cytotoxicity toward BJ-TERT fibroblasts, dose response, cell-based, RAS-independent, luminescence (AID 1933). The test is classed as functional. Conditions: Homo sapiens.
The nature of test [15]: inhibitors of firefly luciferase expression or activity, dose response, H4 neuroglioma cells, luminescence (AID 1990). In kind it is functional, cell-based.
The nature of test [16]: RKO cell viability reduction, dose response, CellTiter-Glo luminescence (AID 1117322). In kind it is functional.
Test [17] can be described thus: cytotoxicity toward DRD oncogenic fibroblasts, dose response, cell-based, non-viral oncogenic, luminescence (AID 1934). The test is classed as functional. Conditions: Homo sapiens.
The nature of test [18]: cytotoxicity toward HT-29 cells – cell-based, CellTiter-Glo luminescence, IC50, dose response (AID 1117330). In kind it is functional.
The nature of test [19]: cytotoxicity toward HCT116 cells – cell-based, CellTiter-Glo luminescence, IC50, dose response (AID 1117332). The test is classed as functional. The note with it: HCT-116.
Test [20] deals with T1, Probable nicotinate-nucleotide adenylyltransferase (Staphylococcus aureus (strain N315), UniProt P65502). In kind it is functional, Staphylococcus aureus subsp. aureus N315. Conditions: read-out: IC50_Mean.
For a further test, the target named is Genome polyprotein (dengue virus type 2, UniProt P29990). Kind of test: Dengue-2 NS5 methyltransferase inhibitors, primary screen, biochemical, confirmation dose response (AID 588689). In kind it is functional.
The nature of test [21]: THP-1 cell cytotoxicity, dose response, cytotoxicity control for Vif-APOBEC3G degradation inhibitor project, THP-1 cells (AID 1117359). In kind it is functional. Conditions: Human immunodeficiency virus 1, THP-1.
The target of test [22] is Glucose-6-phosphate 1-dehydrogenase (Homo sapiens, UniProt P11413). Kind of test: human G6PD enzyme inhibitors, dose response, selectivity assay for P. falciparum G6PD inhibitor project, biochemical, fluorescence (AID 504792). The test is classed as functional.
A further test concerns the target Protein Tat (Human immunodeficiency virus type 1 group M subtype B (isolate HXB2)(HIV-1), UniProt P04608). In kind it is functional.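 Further: tat binding to TAR RNA read out by fluorescence polarization.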
A further test has as its system Vero. Kind of test: Vero cell cytotoxicity, cytotoxicity control for flavivirus capping enzyme inhibitors (AID 588742). The test is classed as functional. The note with it: Chlorocebus sabaeus.
Test [23] concerns the target T1, Probable nicotinate-nucleotide adenylyltransferase. The test is classed as functional, Staphylococcus aureus subsp. aureus N315.
Test [24] addresses G-protein coupled receptor 183 (Homo sapiens, UniProt P32249). Description: SAR confirmation of small molecule antagonists of the EBI2 receptor via a luminescent beta-arrestin assa. In kind it is functional.
Test [25] can be described thus: Orthopox viral replication plaque formation Measured in Cell-Based and Microorganism Combination System Using Imaging - 2142-05_Inhibitor_Dose_DryPowder_Activity. In kind it is functional.
Test [26] is described as follows: A549 cell cytotoxicity, dose response, CellTiter-Glo luminescence, dry powder, set 17 (AID 1117284). The test is classed as functional, cell-based.
The nature of test [27]: A549 cell cytotoxicity, dose response, cytotoxicity control, 24 h, CellTiter-Glo luminescence, cherry-picks (AID 1053115). Conditions: A549, 24 h. In kind it is functional, cell-based.
The nature of test [28]: cells. The note with it: HEK293.
The subject of a further test is HeLa. Description: HeLa cell cytotoxicity, dose response, cytotoxicity control for MITF activator project, CellTiter-Glo luminescence, cherry-pick samples (AID 540259). In kind it is functional, cell-based. Conditions: Homo sapiens.
The target of test [29] is E3 ubiquitin-protein ligase UHRF1 (Homo sapiens, UniProt Q96T88). Kind of test: Counterscreen for inhibitors of 5-meCpG-binding domain protein 2 (MBD2): TRFRET-based biochemical high throughput dose response assay to identify inhibitors of binding of ubiquitin-like with PHD and ring finger domains 1 (UHRF1) to methylated oligonucleotide.
Test [30] in a line: HepG2 cell cytotoxicity, dose response, cytotoxicity control, ATP luminescence, cherry-pick, set 6 (AID 1053125). The test is classed as functional, cell-based.
The nature of test [31]: cells. The note with it: A549.
For test [32], the target named is T2, DNA repair and recombination protein RAD54-like (Homo sapiens, UniProt Q92698).
T2 sequence (Q92698 whole entry): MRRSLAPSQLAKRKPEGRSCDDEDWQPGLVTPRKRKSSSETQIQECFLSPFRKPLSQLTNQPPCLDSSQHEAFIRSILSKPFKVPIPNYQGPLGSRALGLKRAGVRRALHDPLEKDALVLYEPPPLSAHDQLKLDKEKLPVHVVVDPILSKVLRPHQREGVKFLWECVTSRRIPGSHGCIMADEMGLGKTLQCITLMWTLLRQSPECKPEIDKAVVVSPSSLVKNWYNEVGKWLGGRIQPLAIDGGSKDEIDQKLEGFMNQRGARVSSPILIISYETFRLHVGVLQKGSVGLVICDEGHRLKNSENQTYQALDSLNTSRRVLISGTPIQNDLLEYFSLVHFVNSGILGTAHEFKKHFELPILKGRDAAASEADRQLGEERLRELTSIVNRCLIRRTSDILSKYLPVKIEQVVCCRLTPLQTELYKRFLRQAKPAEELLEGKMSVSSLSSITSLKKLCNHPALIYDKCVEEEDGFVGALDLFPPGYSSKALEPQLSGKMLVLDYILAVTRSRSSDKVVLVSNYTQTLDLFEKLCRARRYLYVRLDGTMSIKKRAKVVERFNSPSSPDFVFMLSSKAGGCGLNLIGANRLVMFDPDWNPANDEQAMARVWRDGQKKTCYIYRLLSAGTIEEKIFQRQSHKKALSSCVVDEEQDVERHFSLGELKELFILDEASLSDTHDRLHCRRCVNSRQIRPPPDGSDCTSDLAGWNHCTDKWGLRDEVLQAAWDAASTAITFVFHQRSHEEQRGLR
Description: inhibitors of human RAD54 branch migration, confirmation, biochemical, fluorescence, cherry-picked samples, dose series (AID 651657). The test is classed as functional.

Test [33] in a line: Dose-response inhibition of insulin secretion in a rat insulinoma line at 5 mM glucose (AID 1117331). The test is classed as functional, cell-based. The note with it: INS-1E.
Test [34] is described as follows: cells.
Test [35] has as its target T3, Oxysterols receptor LXR-beta (Homo sapiens, UniProt P55055).
T3 sequence (P55055 whole entry): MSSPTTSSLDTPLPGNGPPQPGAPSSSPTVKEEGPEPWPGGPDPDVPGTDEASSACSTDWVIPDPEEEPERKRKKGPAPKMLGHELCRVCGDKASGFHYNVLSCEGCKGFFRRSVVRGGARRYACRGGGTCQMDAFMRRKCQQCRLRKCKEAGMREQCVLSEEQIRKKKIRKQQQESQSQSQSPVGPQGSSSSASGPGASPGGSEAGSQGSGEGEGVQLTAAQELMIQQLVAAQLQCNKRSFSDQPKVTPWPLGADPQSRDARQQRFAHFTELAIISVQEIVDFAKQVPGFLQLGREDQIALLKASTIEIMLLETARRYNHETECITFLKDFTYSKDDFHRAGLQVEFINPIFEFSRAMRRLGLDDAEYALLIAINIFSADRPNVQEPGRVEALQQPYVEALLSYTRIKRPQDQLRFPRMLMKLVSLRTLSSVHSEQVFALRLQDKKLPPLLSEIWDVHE
Description: LXR agonists, Gal4 luciferase reporter, dose response, counter-screen for ssDAF-12 agonist project, cell-based, luminescence, HEK293, S. stercoralis campaign (AID 720737). The test is classed as functional. The note with it: read-out: IC50 (the source's name).

Test [36] concerns the target T3, Oxysterols receptor LXR-beta. The test is classed as functional, cell-based.
The nature of test [37]: Luminescence-based cell-based high throughput dose response assay to identify activators of the DAF-12 from the parasite S. stercoralis (ssDAF-12). The test is classed as functional.
Test [38] deals with RNA-editing ligase 1, mitochondrial (Trypanosoma brucei brucei, UniProt P86926). Kind of test: TbREL1 ligase inhibitors, dose response, biochemical, fluorescence, Trypanosoma brucei (AID 1117295). In kind it is functional.
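Wherever IC50 Mean is given: confirmatory dose-response retesting of NadD inhibitor hits first found in an ultra-high-throughput screen.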

T1 sequence (P65502 whole entry): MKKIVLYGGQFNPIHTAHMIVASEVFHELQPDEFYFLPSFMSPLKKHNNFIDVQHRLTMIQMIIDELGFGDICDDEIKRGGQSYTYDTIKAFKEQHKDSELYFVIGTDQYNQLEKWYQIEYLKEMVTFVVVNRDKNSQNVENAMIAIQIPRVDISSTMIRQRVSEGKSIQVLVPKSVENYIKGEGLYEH
E3 ubiquitin-protein ligase UHRF1, sequence (Q96T88 whole entry, the tested form may be a part): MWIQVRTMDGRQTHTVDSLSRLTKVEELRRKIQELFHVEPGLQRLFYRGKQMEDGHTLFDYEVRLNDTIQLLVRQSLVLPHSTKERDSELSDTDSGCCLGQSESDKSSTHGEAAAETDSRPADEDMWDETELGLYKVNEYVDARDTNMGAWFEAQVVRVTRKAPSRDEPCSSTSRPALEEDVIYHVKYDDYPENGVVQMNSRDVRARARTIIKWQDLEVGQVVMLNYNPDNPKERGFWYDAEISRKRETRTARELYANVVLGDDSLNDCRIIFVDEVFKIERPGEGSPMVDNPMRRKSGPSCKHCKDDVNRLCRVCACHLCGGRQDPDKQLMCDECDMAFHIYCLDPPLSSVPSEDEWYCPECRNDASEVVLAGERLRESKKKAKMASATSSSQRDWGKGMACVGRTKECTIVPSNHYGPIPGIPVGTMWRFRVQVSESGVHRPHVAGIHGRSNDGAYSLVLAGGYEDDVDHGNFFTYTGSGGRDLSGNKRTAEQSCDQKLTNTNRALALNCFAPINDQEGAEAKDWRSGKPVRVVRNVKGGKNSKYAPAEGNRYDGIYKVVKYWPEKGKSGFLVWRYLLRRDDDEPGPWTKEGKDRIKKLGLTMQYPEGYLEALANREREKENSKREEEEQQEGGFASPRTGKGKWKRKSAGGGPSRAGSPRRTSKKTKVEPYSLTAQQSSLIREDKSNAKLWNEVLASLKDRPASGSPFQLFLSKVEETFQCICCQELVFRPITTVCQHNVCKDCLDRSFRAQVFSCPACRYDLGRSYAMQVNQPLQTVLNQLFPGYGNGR
Protein Tat, sequence (P04608 whole entry): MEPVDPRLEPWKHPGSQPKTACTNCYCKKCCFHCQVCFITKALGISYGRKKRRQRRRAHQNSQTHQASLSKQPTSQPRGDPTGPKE
G-protein coupled receptor 183, sequence (P32249 whole entry): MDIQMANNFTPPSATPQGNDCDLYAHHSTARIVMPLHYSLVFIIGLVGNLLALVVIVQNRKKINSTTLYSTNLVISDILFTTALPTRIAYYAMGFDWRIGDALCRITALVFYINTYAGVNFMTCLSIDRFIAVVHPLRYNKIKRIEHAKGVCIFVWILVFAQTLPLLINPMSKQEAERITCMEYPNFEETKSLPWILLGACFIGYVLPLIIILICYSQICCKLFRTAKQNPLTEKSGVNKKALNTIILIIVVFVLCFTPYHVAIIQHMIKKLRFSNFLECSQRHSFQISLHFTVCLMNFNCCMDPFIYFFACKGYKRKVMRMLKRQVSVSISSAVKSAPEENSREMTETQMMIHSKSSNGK
Genome polyprotein, sequence (P29990 2492-3391 limits assumed): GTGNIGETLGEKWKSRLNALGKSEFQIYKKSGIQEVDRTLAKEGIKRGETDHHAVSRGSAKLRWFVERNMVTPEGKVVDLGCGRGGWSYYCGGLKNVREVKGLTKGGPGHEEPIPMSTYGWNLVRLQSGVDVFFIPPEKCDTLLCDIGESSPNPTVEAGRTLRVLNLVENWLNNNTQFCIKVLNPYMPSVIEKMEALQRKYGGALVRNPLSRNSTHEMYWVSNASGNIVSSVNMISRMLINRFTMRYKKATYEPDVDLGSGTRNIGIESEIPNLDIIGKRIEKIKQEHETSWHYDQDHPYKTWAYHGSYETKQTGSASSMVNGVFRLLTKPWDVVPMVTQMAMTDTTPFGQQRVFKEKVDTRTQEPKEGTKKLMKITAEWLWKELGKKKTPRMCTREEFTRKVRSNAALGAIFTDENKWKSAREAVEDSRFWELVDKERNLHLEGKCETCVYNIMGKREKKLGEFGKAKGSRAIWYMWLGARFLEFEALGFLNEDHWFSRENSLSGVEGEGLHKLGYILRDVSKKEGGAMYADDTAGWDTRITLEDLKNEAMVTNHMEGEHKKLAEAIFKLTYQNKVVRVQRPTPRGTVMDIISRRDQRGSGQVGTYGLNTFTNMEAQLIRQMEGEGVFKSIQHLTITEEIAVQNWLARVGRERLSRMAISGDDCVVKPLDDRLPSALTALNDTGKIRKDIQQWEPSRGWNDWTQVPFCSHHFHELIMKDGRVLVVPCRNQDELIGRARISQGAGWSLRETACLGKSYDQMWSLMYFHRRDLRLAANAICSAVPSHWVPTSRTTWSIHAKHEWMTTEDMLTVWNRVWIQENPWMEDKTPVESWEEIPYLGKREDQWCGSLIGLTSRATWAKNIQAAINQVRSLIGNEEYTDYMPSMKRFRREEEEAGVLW
RNA-editing ligase 1, mitochondrial, sequence (P86926 whole entry): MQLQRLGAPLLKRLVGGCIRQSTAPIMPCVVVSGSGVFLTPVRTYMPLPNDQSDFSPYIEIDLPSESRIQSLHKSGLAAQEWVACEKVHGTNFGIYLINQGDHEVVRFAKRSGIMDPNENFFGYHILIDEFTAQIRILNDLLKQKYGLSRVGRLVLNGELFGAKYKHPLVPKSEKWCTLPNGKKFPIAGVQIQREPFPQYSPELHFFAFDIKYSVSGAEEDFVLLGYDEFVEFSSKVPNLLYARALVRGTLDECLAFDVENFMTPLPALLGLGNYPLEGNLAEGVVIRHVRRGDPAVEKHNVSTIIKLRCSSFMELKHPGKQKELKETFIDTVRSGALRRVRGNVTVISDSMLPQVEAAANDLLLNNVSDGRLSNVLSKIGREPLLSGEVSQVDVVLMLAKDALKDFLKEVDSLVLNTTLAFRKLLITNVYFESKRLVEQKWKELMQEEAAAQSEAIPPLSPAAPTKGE
Glucose-6-phosphate 1-dehydrogenase, sequence (P11413 whole entry): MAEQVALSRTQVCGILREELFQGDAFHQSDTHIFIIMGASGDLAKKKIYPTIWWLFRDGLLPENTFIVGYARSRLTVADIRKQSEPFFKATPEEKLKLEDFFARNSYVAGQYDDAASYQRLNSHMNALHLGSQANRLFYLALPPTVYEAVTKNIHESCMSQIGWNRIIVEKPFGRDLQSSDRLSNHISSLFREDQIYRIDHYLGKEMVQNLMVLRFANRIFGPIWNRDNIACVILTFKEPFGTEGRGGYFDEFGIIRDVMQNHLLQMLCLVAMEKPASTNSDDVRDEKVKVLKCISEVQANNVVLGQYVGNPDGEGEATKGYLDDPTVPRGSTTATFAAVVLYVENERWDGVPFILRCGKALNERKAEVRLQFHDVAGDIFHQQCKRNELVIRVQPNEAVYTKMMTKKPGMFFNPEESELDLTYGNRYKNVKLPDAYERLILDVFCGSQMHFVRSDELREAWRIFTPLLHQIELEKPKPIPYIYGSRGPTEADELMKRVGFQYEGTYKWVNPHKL

Consider `CS(=O)(=O)c1ccc(N2CCN(C(=O)c3ccc4c(c3)OCO4)CC2)cc1`, for which, in test [1], the AC50 was 15.1 µM (active).

Consider `Sc1ncnc2nc[nH]c12` [MERCAPTOPURINE ANHYDROUS], for which the results for the GI50 in the test with P388, with P388/ADR and with SN12K1 were 8.89 µM (inactive), 19.5 µM (inactive) and 1.29 µM (inactive), respectively. Besides, the IC50 is 1.3 µM (active) in [2]; 1.04 µM (active) in test [3]; 1.42 µM (active) in test [4]; > 10 µM (inactive) in test [6]; > 10 µM (inactive) in test [8]; 0.26 µM (active) in test [11]. Also, the IC50 is > 20 µM (inactive) in test [12], 0.659 µM (active) in test [16], 0.635 µM (active) in test [18] and 0.259 µM (active) in test [19]. In addition, the CC50 in test [5] was > 40 µM (active). Also, the EC50 was > 133 µM (inactive) in the test with BJ [7]; 11.6 µM (active) in test [9]; 4.33 µM (inconclusive) with BJ [10]; > 150 µM (not active) in the test with BJ [13]; > 150 µM (not active) in the test with BJ [14]; 13 µM (active) in test [15]. For the same molecule, the EC50 in test [17] is 5.35 µM (active).

On to `O=C1OC(c2ccc3ccccc3c2O)(c2ccc3ccccc3c2O)c2ccccc21`, for which the IC50 is 20.9 µM (active) in [20]; 19 µM (active) at Genome polyprotein; > 80 µM (inactive) in [22]; > 100 µM (active) on Protein Tat; 7.05 µM (active) in test [23]. For the same molecule, the CC50 (in test [21]; with Vero) was > 40 µM (active) each time.

For `CCCc1ccc(S(=O)(=O)N2CCN(C(=O)/C=C/c3ccc(F)cc3)CC2)cc1`, the IC50 in test [24] was 0.0241 µM (active).

As to `C[C@@H](O)C#Cc1ccc2c(c1)O[C@@H](CN(C)Cc1ccc(-c3ccccc3)cc1)[C@@H](C)CN([C@@H](C)CO)S2(=O)=O`, the half-maximal activity concentration (AC50) in test [25] is 8.84 µM (active); in test [26] (A549), > 52 µM (inactive); in test [26] (a549), 49.4 µM (active); in test [27] it was > 60 µM (inactive).

With `COc1cc2sc3cc(NCC[C@@H]4CCCN4C)ccc3c(=O)c2cc1OC`, the AC50 was 38 µM (active) in the test “cells [28]”; 191 µM (active) in the test with HeLa; 17.6 µM (active) in test [30]; 35.5 µM (active) in the test “cells [31]”; 6.9 µM (active) in [32]. The IC50 in [29] was 26.2 µM (inactive).

Regarding `CN(C)CC[C@@H](c1ccc(Cl)cc1)c1ccccn1`, the IC50 in test [33] was 17.7 µM (inactive).

Turning to `Cc1ccc(-c2cc3nc(C)cc(C)n3n2)cc1`, the EC50 (in the test “cells [34]”; in [35]; in test [36]) was > 67.5 µM (inactive) throughout. In addition, in [37], the IC50 was > 67.5 µM (inactive).

Take `CCCCN(C)C(=O)c1ccc(Nc2nc(C(N)Cc3ccc(C(F)(F)F)cc3)cs2)nc1` (stereo unspecified): the IC50 in test [38] was > 96.6 µM (inactive).
